# Measurements published in patent US9315545B2, “Hepcidin mimetic peptides and uses thereof” (MERGANSER BIOTECH, INC., priority 2014, dated 2016).
# “Also recorded” adds a separate entry of the source. Where two headings read alike, the source gives them in different places.
# Legend:
# [1] = format: physicochemical
# Procedure: Compound 5, which has the same disulphide block of the reactive cysteine as Compound 2 was also evaluated in stability studies over a 4 week period in 50 mM Na Acetate pH 5 at different temperatures.
# serum iron = assay: Serum iron reduction after subcutaneous administration in the rat (hepcidin mimetic activity); format: in vivo; conditions: 7.5 mg/kg
# Procedure: (§1) Compounds 1-4 were tested in rats to determine compound pharmacokinetics and hepcidin mimetic activity in vivo as measured by serum iron reduction. The effectiveness of the compounds for serum iron reduction should correlate with the treatment of iron metabolism disorders. Individual compounds, in this example and the following examples were generally formulated in DSPE-PEG(2000) (SUNBRIGHT® DSPE-020CN, NOF America Corporation) (30 mg/mL) and dosed subcutaneously at a compound dose of 7.5 mg/kg.
# (§2) The compound was prepared according to the following typical preparation. The dosing solution was prepared (7.5 mg compound/mL in clear solution) by weighing the compound into vial and an aliquot of ethanol is added into the vial and mixture vortexed. DSPE-020CN was added and the solution was vortexed, and, if necessary, the mixture was heated at 37° C. for 10-15 minutes to fully dissolve the DSPE-020CN. The ethanol was evaporated with nitrogen gas stream for 1-3 hours. Sterile water was then added and the mixture was vortexed or, if necessary, sonicated to give a clear solution.
# Serum iron was measured during the 24 h following subcutaneous administration in a rat of Compounds 1-4 and is summarized in FIG. 1. […] The observed effects on serum iron were unexpectedly similar in Compounds 1-3 despite the differences at Cysteine 7 and the differences in blood levels of the compounds (Table 7).
# [2] = In vitro stability of compounds in rat plasma (37° C.); format: in vitro ADME
# Procedure: The in vitro stability of Compounds 1-4 in rat plasma at 37° C. was examined to give an indication of stability in a whole animal model (Table 6).
# physchem = format: physicochemical
# Procedure: Different solvent compositions with different properties that are commonly used as a basis for pharmaceutical compositions were added to known quantities of the indicated compound and mixed. If a clear solution was not obtained, additional solvent was added and the solution mixed. […] For example “50-100” would indicate that the compound was not soluble at 100 mg/mL but upon additional solvent to have a final concentration of 50 mg/mL, the compound was soluble.
# [3] = format: physicochemical; conditions: HCl (0.01%), 40° C.
# [4] = format: physicochemical; remark: listed apart in the source
# Procedure: An additional critical aspect in drug delivery is retention of solubility with time (physical stability), especially under refrigerated conditions. […] Unexpectedly, clear differences in physical stability were observed between Compound 5 and other compounds with only minor changes in sequence (e.g. Compounds 7 and 8). The combination of unexpected solubility of greater than 100 mg/mL in mildly acidic conditions and lack of significant changes in solution character after refrigeration, are unexpected and advantageous for a pharmaceutical product.
# [5] = Compound blood levels after subcutaneous administration in the rat (LC/MS); format: in vivo; conditions: 7.5 mg/kg
# Procedure: as §1, §2
# After subcutaneous injection compound quantities in blood were measured over the subsequent 24 hours via LC/MS.
# [6] = Stability of Compound 1 pH 6 formulations at 40° C. with antioxidants (HPLC % AUC); format: physicochemical
# Procedure: Initially the stability of Compound 1 was previously characterized and there was significant degradation observed by HPLC after about 24 hours at 40° C. […] The effect of various antioxidants and thiol scavengers that might be used in a medicament were studied.
# [7] = Stability in sodium acetate buffer pH 6 at two temperatures, reversed-phase HPLC; format: physicochemical; conditions: for % Purity of the Compound, 6 Hours 25° C. / % Purity of the Compound, 6 Hours 40° C.: sodium acetate buffer pH 6, 6 hours; for % Purity of the Compound, Initial: sodium acetate buffer pH 6, initial
# Procedure: Three other compounds were also tested, Compound 2, Compound 3, and Compound 4. Compounds 2, 3, and 4 are modifications of Compound 1 at the sidechain of Cysteine 7. Compound 2 has a disulfide bond attached to Cysteine 7, Compound 3 has thioester bond attached to Cysteine 7, and Compound 4 has an ethyl group attached to the sidechain sulfur of Cysteine 7. The peptides were incubated in sodium acetate buffer pH 6 at two temperature conditions and then analyzed via reversed-phase HPLC. The chromatography performed was with an Ascentis Phenyl 2.7 micron column (4.6×150 mm). The binary gradient (1 ml/min) was 36% to 56% B in 40 minutes followed by an increase to 65% B in 5 minutes where A=0.1% trifluoroacetic acid in water and B=0.1% trifluoroacetic acid in acetonitrile.
# [8] = sodium acetate buffer pH 6, 18 h, 40° C.
# [9] = sodium acetate buffer pH 6, 18 hours, 40° C.
smiles,measurement,setting,value
CCCCCCCCCCCCCCCCNC(=O)CN(CC(N)=O)C(=O)CCCCCNC(=O)C(Cc1c[nH]c2ccccc12)NC(=O)C(CCCNC(=N)N)NC(=O)C(CSSC)NC(=O)C(CCCNC(=N)N)NC(=O)C1CCCN(C(=O)C(NC(=O)C(Cc2c[nH]cn2)NC(=O)C(NC(=O)CNCC(=O)O)C(C)O)C(c2ccccc2)c2ccccc2)C1 (stereo not drawn) [Compound 5],"% Purity, Week 0, 2-8° C.","[1]; 50 mM NaAcetate pH 5, week 0, 2-8° C.",96.9%
same,"% Purity, Week 0, 25° C.","[1]; 50 mM NaAcetate pH 5, week 0, 25° C.",96.9%
same,"% Purity, Week 1, 2-8° C.","[1]; 50 mM NaAcetate pH 5, week 1, 2-8° C.",96.8%
same,"% Purity, Week 1, 25° C.","[1]; 50 mM NaAcetate pH 5, week 1, 25° C.",96.8%
same,"% Purity, Week 2, 2-8° C.","[1]; 50 mM NaAcetate pH 5, week 2, 2-8° C.",96.8%
same,"% Purity, Week 2, 25° C.","[1]; 50 mM NaAcetate pH 5, week 2, 25° C.",96.3%
same,"% Purity, Week 4, 2-8° C.","[1]; 50 mM NaAcetate pH 5, week 4, 2-8° C.",96.7%
same,"% Purity, Week 4, 25° C.","[1]; 50 mM NaAcetate pH 5, week 4, 25° C.",96.1%
same,duration of serum iron reduction compared with Compound 2,serum iron,longer effect
same,reduction in serum iron (in words),serum iron,retained significant hepcidin activity; also recorded: comparable activity
same,"in vitro plasma stability, comparison in words",[2],even greater than that for Compound 2
same,solubility characteristics compared to the other compounds (in words),physchem,unexpectedly superior solubility characteristics
same,solubility,"physchem; Solubility (mg/mL) at Ambient Temperature, 30% PEG 400",50 to 100 mg/mL
same,solubility,"physchem; Solubility (mg/mL) at Ambient Temperature, 50% EtOH/water",> 100 mg/mL
same,solubility,"physchem; Solubility (mg/mL) at Ambient Temperature, Water",> 100 mg/mL
same,solubility,"physchem; pH 2.3, Solubility (mg/mL) at Ambient Temperature, 10% Tween 80 pH 2.3-2.8",> 200 mg/mL
same,solubility,"physchem; pH 2.7, Solubility (mg/mL) at Ambient Temperature, 50% propylene glycol, pH 2.7",50 to 100 mg/mL
same,change of solubility with pH (in words),physchem; pH 4,no such significant change in solubility with pH
same,solubility,"physchem; pH 4.5, Solubility (mg/mL) at Ambient Temperature, 10% Tween 80 pH 4.5-5.0",> 100 mg/mL
same,solubility,"physchem; pH 5, Solubility (mg/mL) at Ambient Temperature, 2% Tween 80 pH 5",> 100 mg/mL
same,solubility,"physchem; pH 5.5, Solubility (mg/mL) at Ambient Temperature, 10% Tween 80 pH 5.5-6.0",> 100 mg/mL
same,solubility,"physchem; pH 6.4, Solubility (mg/mL) at Ambient Temperature, 2% Tween pH 6.4",> 44 mg/mL
same,solubility,physchem; solubility in mildly acidic conditions,> 100 mg/mL
same,"% Purity, Day 0",[3]; day 0,97.1%
same,"% Purity, Day 7",[3]; day 7,96.8%
same,physical stability under refrigerated conditions (in words),[4],no changes in solution solubility or solution characteristics
same,blood levels of the dosed compound (in words),"[5]; in vivo, sc",surprisingly higher blood levels relative to the other compounds
"CCCCCCCCCCCCCCCCNC(=O)CN(CC(N)=O)C(=O)CCCCCNC(=O)C(Cc1c[nH]c2ccccc12)NC(=O)C(CCCNC(=N)N)NC(=O)C(CS)NC(=O)C(CCCNC(=N)N)NC(=O)CC1CCCN1C(=O)C(NC(=O)C(Cc1c[nH]cn1)NC(=O)C(NC(=O)CNCC(=O)O)C(C)O)C(c1ccccc1)c1ccccc1 (stereo not drawn) [Compound 1, reference compound]",main peak (% AUC) lost,"[6]; after about 24 hours at 40° C., no antioxidant",90%
same,Difference (%) (T24 − T0),"[6]; pH 6 formulation, antioxidant 10 mM or none, 40° C.",−90%
same,"Main peak % AUC, T0","[6]; pH 6 formulation, antioxidant 10 mM or none, 40° C., T0",94.4 % AUC
same,"Main peak % AUC, T ~24 hours","[6]; pH 6 formulation, antioxidant 10 mM or none, 40° C., ~24 hours",~4.0 (estimated) % AUC
same,reduction in serum iron (in words),serum iron,significant drop in serum iron level
same,significant degradation peaks observed by HPLC,[7],a single major peak
same,degradation after 18 hours at 40° C. (in words),"[7]; 18 hours, 40° C.",almost completely degraded
same,"% Purity of the Compound, 6 Hours 25° C.",[7]; 25° C.,58.9%
same,"% Purity of the Compound, 6 Hours 40° C.",[7]; 40° C.,11.9%
same,"Change in Main Peak % Area After 18 H Incubation, 40° C.",[7]; [8],−95-100%
same,"% Purity of the Compound, 18 Hours 40° C.",[7]; [9],<5%
same,"% Purity of the Compound, Initial",[7],96.9%
same,In vitro plasma stability (Ratio of compound/benfluorex (std) degradation),"[2]; rat plasma, 37° C.",0.41
same,half-life,"[2]; rat plasma, 37° C., read-out: In vitro plasma stability (T ½)",0.383 h
same,AUC(0-t),"[5]; sc, subcutaneous, blood, dosed compound itself, read-out: AUC(0-24) (hr*ng/mL, mean ± SD)",2750 ng·h/mL
same,blood levels of the dosed compound (in words),[5]; subcutaneous,remains little changed out to at least 24 hours
CCCCCCCCCCCCCCCCNC(=O)CN(CC(N)=O)C(=O)CCCCCNC(=O)C(Cc1c[nH]c2ccccc12)NC(=O)C(CCCNC(=N)N)NC(=O)C(CSCC)NC(=O)C(CCCNC(=N)N)NC(=O)CC1CCCN1C(=O)C(NC(=O)C(Cc1c[nH]cn1)NC(=O)C(NC(=O)CNCC(=O)O)C(C)O)C(c1ccccc1)c1ccccc1 (stereo not drawn) [Compound 4],reduction in serum iron (in words),serum iron,minimal reduction in serum iron after 24 h; also recorded: little activity in vivo
same,degradation after 18 hours at 40° C. (in words),[7],no evidence of degradation involving the cysteine
same,"% Purity of the Compound, 6 Hours 25° C.",[7]; 25° C.,96.8%
same,"% Purity of the Compound, 6 Hours 40° C.",[7]; 40° C.,96.6%
same,"Change in Main Peak % Area After 18 H Incubation, 25° C.","[7]; sodium acetate buffer pH 6, 18 h, 25° C.",−0.5%
same,"Change in Main Peak % Area After 18 H Incubation, 40° C.",[7]; [8],0.3%
same,"% Purity of the Compound, 18 Hours 25° C.","[7]; sodium acetate buffer pH 6, 18 hours, 25° C.",96.2%
same,"% Purity of the Compound, 18 Hours 40° C.",[7]; [9],97.0%
same,"% Purity of the Compound, Initial",[7],96.7%
same,In vitro plasma stability (Ratio of compound/benfluorex (std) degradation),[2],2.74
same,half-life,"[2]; rat, plasma",1.87 h
same,AUC(0-t),"[5]; in vivo, sc",25600 ng·h/mL
same,blood levels of Compound 1 (metabolite) after dosing the labelled compound,"[5]; in vivo, sc",No levels of Compound 1 were detected
same,blood levels of the dosed compound (in words),"[5]; in vivo, sc",very high blood levels
